# Data: publication PMC7570888 (Molecules, 2020)
# Marks after values point to notes of the source that are not given here.
# Columns and labels:
# MT2 = details: cited from earlier work
# MT1 = details: cited from earlier work
# human MT1 receptor [1] = target: T1, human MT1 receptor (Homo sapiens, UniProt P48039); details: relative to melatonin; cited from earlier work
# T1 construct: expressed in transfected cells; host or cells: NIH3T3 fibroblast cells, stably transfected; membranes used
# human MT2 receptor [2] = target: T2, human MT2 receptor (Homo sapiens, UniProt P49286); details: relative to melatonin; cited from earlier work
# T2 construct: expressed in transfected cells; host or cells: NIH3T3 fibroblast cells, stably transfected; membranes used
# T2 sequence (P49286 1-362): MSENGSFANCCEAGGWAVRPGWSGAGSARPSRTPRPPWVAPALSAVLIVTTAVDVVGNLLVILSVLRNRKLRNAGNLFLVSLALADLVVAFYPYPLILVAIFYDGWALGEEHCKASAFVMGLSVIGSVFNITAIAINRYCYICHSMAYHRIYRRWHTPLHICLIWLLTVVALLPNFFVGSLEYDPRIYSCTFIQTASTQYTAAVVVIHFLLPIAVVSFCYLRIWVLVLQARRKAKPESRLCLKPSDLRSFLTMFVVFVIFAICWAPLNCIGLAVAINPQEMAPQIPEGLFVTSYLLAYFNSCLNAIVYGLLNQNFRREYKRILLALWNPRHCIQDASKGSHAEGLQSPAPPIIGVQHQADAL
# human MT1 receptor [3] = target: T1, human MT1 receptor; assay: 2-[125I]iodomelatonin competition binding, human MT1 in NIH3T3 cell membranes; details: 2-[125I]iodomelatonin 100 pM, 90 min 37 °C; Cheng-Prusoff; mean of at least three determinations in duplicate; read-out: hMT1 pKi (±SD) (converted)
# Description: (§1) The newly synthesized alpha- and beta-methyl N-anilinoethylamides were evaluated for their binding affinity at human MT1 and MT2 receptors stably transfected in NIH3T3 cells using 2-[^125I]iodomelatonin as radiolabelled ligand.
# (§2) Binding affinities were determined using 2- [^125I]iodomelatonin as the labeled ligand in competition experiments on cloned human MT1 and MT2 receptors expressed in NIH3T3 […] fibroblast cells. The characterization of NIH3T3-MT1 and -MT2 cells had been already described in detail. Membranes were incubated for 90 min at 37 °C in binding buffer (Tris-HCl, 50 mM, pH 7.4). The final membrane concentration was 5−10 μg of protein per tube. The membrane protein level was determined in accordance with a previously reported method. […] The pKi values were calculated from the IC50 values in accordance with the Cheng−Prusoff equation [21]. The pKi values are the mean of at least three independent determinations performed in duplicate.
# human MT2 receptor [4] = target: T2, human MT2 receptor; assay: 2-[125I]iodomelatonin competition binding, human MT2 in NIH3T3 cell membranes; details: 2-[125I]iodomelatonin 100 pM, 90 min 37 °C; Cheng-Prusoff; mean of at least three determinations in duplicate; read-out: hMT2 pKi (±SD) (converted)
# Description: as §1, §2
# T1 sequence (P48039 whole entry): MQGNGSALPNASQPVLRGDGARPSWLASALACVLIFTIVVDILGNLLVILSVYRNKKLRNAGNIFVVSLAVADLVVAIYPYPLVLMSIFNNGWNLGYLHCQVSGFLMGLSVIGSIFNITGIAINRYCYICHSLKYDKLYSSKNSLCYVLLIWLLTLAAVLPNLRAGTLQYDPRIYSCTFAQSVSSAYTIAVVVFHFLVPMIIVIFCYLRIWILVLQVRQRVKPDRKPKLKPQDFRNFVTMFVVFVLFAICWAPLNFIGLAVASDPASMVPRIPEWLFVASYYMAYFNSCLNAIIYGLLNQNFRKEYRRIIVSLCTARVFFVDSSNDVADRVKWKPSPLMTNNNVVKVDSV
smiles,measurement,setting,value
"COc1cc2c([C@@H](C)CNC(C)=O)c[nH]c2cc1Cl [TIK-301, (R)-β-methyl-6-chloro-melatonin]",Ki,MT2,0.042 nM
same,Ki,MT1,0.081 nM
"CCC(=O)NC[C@H](CO)c1cccc2ccc(OC)cc12 [compound 1, (R)-N-[3-hydroxy-2-(7-methoxynaphthalen-1-yl)propyl]propanamide]",pKi(MT2),MT2,9.50
same,pKi(MT1),MT1,8.47
"COc1cccc(O[C@@H](C)CNC(C)=O)c1 [compound 2, (S)-N-[2-(3-methoxyphenoxy)propyl]acetamide]",pKi(MT2),MT2,8.33
same,pKi(MT1),MT1,8.77
"COc1cccc(N(C)CCNC(C)=O)c1 [compound 3, N-{2-[(3-methoxyphenyl)methylamino]ethyl}acetamide]","hMT1 IA, relative intrinsic activity",human MT1 receptor [1],0.95 ^c
same,"hMT2 IA, relative intrinsic activity",human MT2 receptor [2],1.06 ^c
same,Ki,human MT1 receptor [3],1.74 nM
same,Ki,human MT2 receptor [4],2.24 nM
